Consider 13 compounds from patent US11130769B2 (Prelude Therapeutics Incorporated, priority 2018, dated 2021).

One test relates to H929 cells. Nature of the test: Cell viability assay (H929 10 FBS). It is filed as cell-based. The note with it: Homo sapiens, NCI-H929, 24 hours, read-out: H929_10FBS IC50. The method in brief:
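ATP-based luminescence (CellTiter-Glo or ATPlite 1 Step, 30-60 min at RT) gauged viability of H929 myeloma cells after 24 h compound treatment at 37 °C. Cells plated at 4000 per well in 10% FBS RPMI 1640 supplemented with pyruvate, HEPES and glucose.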

The target in the next test is MCL-1 (Homo sapiens (Human), UniProt Q07820). Nature of the test: Cell free Mcl-1:Bim affinity assay (fluorescence polarization competition). The format is binding. The note with it: 15 nM MCL-1, 5 nM FITC-Bim, 1 hour at room temperature; class symbols; read-out: BIM_Ki. An outline of the steps: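 Fluorescence polarization competition: 10-point 3-fold compound dilutions displaced 5 nM FITC-Bim from 15 nM MCL-1 over 1 h at room temperature. Ki was derived from the fitted IC50 using the Nikolovska-Coleska equation, with percent inhibition normalized to DMSO and positive controls.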
Chain of MCL-1 (Q07820 whole entry): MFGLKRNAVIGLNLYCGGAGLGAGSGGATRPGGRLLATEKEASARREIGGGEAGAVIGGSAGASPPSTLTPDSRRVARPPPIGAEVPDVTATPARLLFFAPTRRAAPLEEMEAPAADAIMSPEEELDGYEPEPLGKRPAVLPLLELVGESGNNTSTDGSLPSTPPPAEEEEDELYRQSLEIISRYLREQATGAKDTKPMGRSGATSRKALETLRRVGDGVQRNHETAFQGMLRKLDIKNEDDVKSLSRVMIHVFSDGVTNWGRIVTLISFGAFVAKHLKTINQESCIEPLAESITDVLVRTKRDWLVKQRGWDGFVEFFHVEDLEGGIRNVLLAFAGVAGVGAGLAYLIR
On the technique in general: Fluorescence polarisation rises when a labelled molecule tumbles more slowly, as on binding a larger partner.

As for `COCCOC[C@H]1C(=O)NS(=O)(=O)c2ccc3c(c2)N(C[C@@H]2CC[C@H]2[C@H](OC)/C=C/C[C@@H]1C)C[C@@]1(CCCc2cc(Cl)ccc21)CO3` [Example 93, (3R,6R,7R,8E,11S,12S,22S)-6′-chloro-7-methoxy-12-(2-methoxyethoxymethyl)-11-methyl-15,15-dioxo-spiro[20-oxa-15-thia-1,14-diazatetracyclo[14.7.2.03,6.019,24]pentacosa-8,16,18,24-tetraene-22,1′-tetralin]-13-one], in the test on H929 cells, the IC50 is above 1 µM. Moreover, the Ki at MCL-1 is 0.001 to 0.1 µM.
The matching figures for `CN(C)CCN(C)C(=O)O[C@H]1/C=C/COC2(CCC2)C(=O)NS(=O)(=O)c2ccc3c(c2)N(C[C@@H]2CC[C@H]21)C[C@@]1(CCCc2cc(Cl)ccc21)CO3` [Example 233, [(3R,6R,7S,8E,22S)-6′-Chloro-12,12-(1,3-propylene)-13,15,15-trioxo-spiro[11,20-dioxa-15-thia-1,14-diazatetracyclo[14.7.2.03,6.019,24]pentacosa-8,16(25),17,19(24)-tetraene-22,1′-tetralin]-7-yl] N-[2-(dimethylamino)ethyl]-N-methyl-carbamate]: below 0.5 µM and below 0.001 µM.
In the same order, the values of `CN(C)C(=O)CO[C@@H]1/C=C/COC(C)(C)C(=O)NS(=O)(=O)c2ccc3c(c2)N(C[C@@H]2CC[C@H]21)C[C@@]1(CCCc2cc(Cl)ccc21)CO3` [Example 141, 2-[(3R,6R,7R,8E,22S)-6′-Chloro-12,12-dimethyl-13,15,15-trioxo-spiro[11,20-dioxa-15-thia-1,14-diazatetracyclo[14.7.2.03,6.019,24]pentacosa-8,16,18,24-tetraene-22,1′-tetralin]-7-yl]oxy-N,N-dimethyl-acetamide] are below 0.5 µM and below 0.001 µM.
In the same order, the values of `CO[C@@H]1/C=C\CN[C@H](C)C(=O)NS(=O)(=O)c2ccc3c(c2)N(C[C@@H]2CC[C@H]21)C[C@@]1(CCCc2cc(Cl)ccc21)CO3` [Example 122, (3R,6R,7R,8Z,12R,22S)-6′-Chloro-7-methoxy-12-methyl-15,15-dioxo-spiro[20-oxa-15-thia-1,11,14-triazatetracyclo[14.7.2.03,6.019,24]pentacosa-8,16(25),17,19(24)-tetraene-22,1′-tetralin]-13-one] are above 1 µM and 0.001 to 0.1 µM.
Consider `CC1(C)OC/C=C/[C@H](OCC(=O)N2C[C@@H](F)[C@H](F)C2)[C@@H]2CC[C@H]2CN2C[C@@]3(CCCc4cc(Cl)ccc43)COc3ccc(cc32)S(=O)(=O)NC1=O` [Example 290, (3R,6R,7S,8E,22S)-6′-Chloro-7-[2-[(3R,4R)-3,4-difluoropyrrolidin-1-yl]-2-oxo-ethoxy]-12,12-dimethyl-15,15-dioxo-spiro[11,20-dioxa-15-thia-1,14-diazatetracyclo[14.7.2.03,6.019,24]pentacosa-8,16,18,24-tetraene-22,1′-tetralin]-13-one], for which the IC50 with H929 cells was below 0.5 µM. Moreover, the Ki at MCL-1 is below 0.001 µM.
The matching figures for `CN(C)CCO[C@@H]1/C=C/COC(C)(C)C(=O)NS(=O)(=O)c2ccc3c(c2)N(C[C@@H]2CC[C@H]21)C[C@@]1(CCCc2cc(Cl)ccc21)CO3` [Example 273, (3R,6R,7R,8E,22S)-6′-Chloro-7-[2-(dimethylamino)ethoxy]-12,12-dimethyl-15,15-dioxo-spiro[11,20-dioxa-15-thia-1,14-diazatetracyclo[14.7.2.03,6.019,24]pentacosa-8,16,18,24-tetraene-22,1′-tetralin]-13-one]: below 1 µM and below 0.001 µM.
In the case of `CN(C)[C@@H]1CCN(C(=O)O[C@H]2/C=C/COC(C)(C)C(=O)NS(=O)(=O)c3ccc4c(c3)N(C[C@@H]3CC[C@H]32)C[C@@]2(CCCc3cc(Cl)ccc32)CO4)C1` [Example 53, [(3R,6R,7S,8E,22S)-6′-Chloro-12,12-dimethyl-13,15,15-trioxo-spiro[11,20-dioxa-15-thia-1,14-diazatetracyclo[14.7.2.03,6.019,24]pentacosa-8,16,18,24-tetraene-22,1′-tetralin]-7-yl] (3R)-3-(dimethylamino)pyrrolidine-1-carboxylate], the IC50 in the test with H929 cells was below 0.5 µM. For the same compound, at MCL-1, the Ki is below 0.001 µM.
As to `CN(C)CCO[C@H]1/C=C/COC(C)(C)C(=O)NS(=O)(=O)c2ccc3c(c2)N(C[C@@H]2CC[C@H]21)C[C@@]1(CCCc2cc(Cl)ccc21)CO3` [Example 65, (3R,6R,7S,8E,22S)-6′-Chloro-7-[2-(dimethylamino)ethoxy]-12,12-dimethyl-15,15-dioxo-spiro[11,20-dioxa-15-thia-1,14-diazatetracyclo[14.7.2.03,6.019,24]pentacosa-8,16,18,24-tetraene-22,1′-tetralin]-13-one], the IC50 in the test on H929 cells is below 0.5 µM. Also, the Ki on MCL-1 is below 0.001 µM.
Consider `CO[C@@H]1/C=C/CN(S(C)(=O)=O)[C@H](C)C(=O)NS(=O)(=O)c2ccc3c(c2)N(C[C@@H]2CC[C@H]21)C[C@@]1(CCCc2cc(Cl)ccc21)CO3` [Example 135, (3R,6R,7R,8E,12R,22S)-6′-Chloro-7-methoxy-12-methyl-11-methylsulfonyl-15,15-dioxo-spiro[20-oxa-15-thia-1,11,14-triazatetracyclo[14.7.2.03,6.019,24]pentacosa-8,16,18,24-tetraene-22,1′-tetralin]-13-one], for which the IC50 in the test with H929 cells was above 1 µM. Moreover, the Ki at MCL-1 lay in the range of 0.001 to 0.1 µM.
In the same order, the values of `CO[C@@H]1/C=C/CN(C)[C@H](C)C(=O)NS(=O)(=O)c2ccc3c(c2)N(C[C@@H]2CC[C@H]21)C[C@@]1(CCCc2cc(Cl)ccc21)CO3` [Example 123, (3R,6R,7R,8E,12R,22S)-6′-Chloro-7-methoxy-11,12-dimethyl-15,15-dioxo-spiro[20-oxa-15-thia-1,11,14-triazatetracyclo[14.7.2.03,6.019,24]pentacosa-8,16(25),17,19(24)-tetraene-22,1′-tetralin]-13-one] are below 1 µM and 0.001 to 0.1 µM.
The matching figures for `CC1(C)OC/C=C/[C@H](OCCN2CC[C@H](F)C2)[C@@H]2CC[C@H]2CN2C[C@@]3(CCCc4cc(Cl)ccc43)COc3ccc(cc32)S(=O)(=O)NC1=O` [Example 265, (3R,6R,7S,8E,22S)-6′-Chloro-7-[2-[(3S)-3-fluoropyrrolidin-1-yl]ethoxy]-12,12-dimethyl-15,15-dioxo-spiro[11,20-dioxa-15-thia-1,14-diazatetracyclo[14.7.2.03,6.019,24]pentacosa-8,16,18,24-tetraene-22,1′-tetralin]-13-one]: below 0.5 µM and 0.001 to 0.1 µM.
The matching figures for `O=C1N[C@@H]2CCN(C2)C(=O)NS(=O)(=O)c2ccc3c(c2)N(C[C@@H]2CC[C@H]2CO1)C[C@@]1(CCCc2cc(Cl)ccc21)CO3` [Example 102, (3R,6R,11R,24S)-6′-Chloro-17,17-dioxo-spiro[8,22-dioxa-17-thia-1,10,14,16-tetrazapentacyclo[16.7.2.111,14.03,6.021,26]octacosa-18(27),19,21(26)-triene-24,1′-tetralin]-9,15-dione]: above 1 µM and 0.001 to 0.1 µM.
In the case of `CCOC(=O)N(C)[C@@H]1/C=C/CN(C)C(C)(C)C(=O)NS(=O)(=O)c2ccc3c(c2)N(C[C@@H]2CC[C@H]21)C[C@@]1(CCCc2cc(Cl)ccc21)CO3` [Example 253, Ethyl N-methyl-N-[(3R,6R,7R,8E,22S)-6′-chloro-11,12,12-trimethyl-13,15,15-trioxo-spiro[20-oxa-15-thia-1,11,14-triazatetracyclo[14.7.2.03,6.019,24]pentacosa-8,16(25),17,19(24)-tetraene-22,1′-tetralin]-7-yl]carbamate], in the test with H929 cells, the IC50 was above 1 µM. For the same compound, at MCL-1, the Ki lay within 0.001 to 0.1 µM.

Usually IC50 stands for the midpoint of a concentration-inhibition curve.
